Measured values as given in US20250034170A1, “SMALL MOLECULE MODULATORS OF GLUCOCEREBROSIDASE ACTIVITY AND USES THEREOF” (Vanqua Bio, Inc., priority 2021, published 2025).

These molecules were tested against T1, GCase (Homo sapiens, UniProt P04062) (assay: activation of GCase in a live cell PFB assay in HELA cells). Conditions: EC50 given as range classes.
T1 construct: endogenous in cells; host or cells: HeLa cells
T1 sequence (P04062 40-536): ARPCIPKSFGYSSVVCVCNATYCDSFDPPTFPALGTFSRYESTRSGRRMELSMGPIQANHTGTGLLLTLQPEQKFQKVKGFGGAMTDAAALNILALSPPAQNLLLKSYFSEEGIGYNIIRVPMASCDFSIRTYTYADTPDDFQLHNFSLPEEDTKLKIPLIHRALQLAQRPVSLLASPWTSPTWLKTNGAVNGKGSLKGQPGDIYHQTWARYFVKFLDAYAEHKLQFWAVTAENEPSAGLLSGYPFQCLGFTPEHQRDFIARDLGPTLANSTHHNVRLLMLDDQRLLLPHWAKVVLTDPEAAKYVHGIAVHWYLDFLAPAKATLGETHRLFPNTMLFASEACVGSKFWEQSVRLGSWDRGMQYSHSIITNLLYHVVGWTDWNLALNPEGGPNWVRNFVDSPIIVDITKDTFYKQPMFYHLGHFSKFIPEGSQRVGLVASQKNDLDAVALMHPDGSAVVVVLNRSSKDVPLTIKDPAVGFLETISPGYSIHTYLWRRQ
Format: cell-based
Procedure: Exemplary compounds were evaluated for activation of GCase in a live cell PFB assay in HELA cells (essentially as described in Ysselstein et al., “LRRK2 kinase activity regulates lysosomal glucocerebrosidase in neurons derived from Parkinson's disease patients” Nature Communications (2019) 10:5570). […] EC50 ranges: A: <10 μM; B: >10-50 μM; C: >50-100 μM; D: >100 μM.

With `FC(F)Cn1ncc2ncc(N3CCC4(CCN(c5ccc(C(F)(F)F)nc5)CC4)CC3)nc21` [Cmpd 807] as the molecule, how does the EC50 read?
Its EC50 is under 10 µM.

With `O=S(=O)(CCC(F)(F)F)N1CC2(CCN(c3cnc4cnn(CC(F)F)c4n3)C2)C1` [Cmpd 415] as the molecule, how does the EC50 read?
The EC50 was 10 to 50 µM.

For `Cc1nc(N2CCC3(CC2)CN(c2cnc4c(C)nn(CC(F)F)c4n2)C3)cc(C(F)(F)F)n1` [Cmpd 585], which EC50 is on record?
Its EC50 is under 10 µM.

For `FC(F)(F)c1cc(N2CC3(CCN(c4cncc(-c5nnc(C(F)(F)F)s5)n4)C3)C2)ccn1` [Cmpd 1023], which EC50 is on record?
Its EC50 is under 10 µM.

How did the EC50 turn out when `FC(F)Cn1ncc2ncc(NC3CCC4(CC3)CN(c3ccc(C(F)(F)F)cn3)C4)nc21` [Cmpd 198] was run?
Its EC50 is 10 to 50 µM.

For `FC(F)(F)Cn1ncc2cnc(N3CCC4(CN(c5ccnc(C(F)(F)F)c5)C4)C3)nc21` [Cmpd 424], which EC50 is on record?
The EC50 was under 10 µM.

With `FC(F)Cn1ncc2ncc(N3CCC4(CCCN(c5cc(C(F)(F)F)ccn5)C4)CC3)nc21` [Cmpd 224] as the molecule, how does the EC50 read?
Its EC50 is 10 to 50 µM.

For `Cc1nc(N2CC3(CCN(c4cc5c(cn4)c(C)nn5CC(F)F)C3)C2)cc(C(F)(F)F)n1` [Cmpd 612], which EC50 is on record?
Its EC50 is 50 to 100 µM.

For `FC(F)Cn1ncc2ncc(NC3CCC4(C3)CN(c3cc(C(F)(F)F)ccn3)C4)nc21` (stereo not shown) [Compound 190, N-[1-(2,2-difluoroethyl)-1H-pyrazolo[3,4-b]pyrazin-6-yl]-2-[4-(trifluoromethyl)pyridin-2-yl]-2-azaspiro[3.4]octan-6-amine], which EC50 is on record?
The EC50 was under 10 µM.

`FC(F)Cn1ncc2ncc(N3CCCC4(CCN(c5cncc(C(F)(F)F)c5)CC4)C3)nc21` [Cmpd 221] was tested. Which EC50 did it give?
Its EC50 is 10 to 50 µM.

With `FC(F)Cn1ncc2ncc(N3CCC4(CC3)CC(Nc3cc(C(F)(F)F)ccn3)C4)nc21` [Cmpd 231] as the molecule, how does the EC50 read?
The EC50 was 10 to 50 µM.

Which EC50 does the source give for `Cn1c(N2CCC3(CCN(c4ccnc(C(F)(F)F)c4)C3)CC2)nc2c(cnn2CC(F)F)c1=O` [Cmpd 1013] here?
Its EC50 is under 10 µM.

For `CC(C)c1cnc(C(F)(F)F)cc1N1CC2(CCN(c3cnc4cnn(CC(F)F)c4n3)C2)C1` [Cmpd 1030], which EC50 is on record?
The EC50 was under 10 µM.

Same assay, conditions: activation of GCase, EC50 ranges

With `FC(F)Cn1ncc2ncc(N3CCC4(CC3)CC(Oc3cnccc3C(F)(F)F)C4)nc21` [Cmpd 707] as the molecule, how does the EC50 read?
The EC50 was 10 to 50 µM.

How did the EC50 turn out when `FC(F)Cn1ncc2ncc(N3CCC4(CC3)CC(COc3ccc(C(F)(F)F)nc3)C4)nc21` [Cmpd 701] was run?
Its EC50 is 10 to 50 µM.

With `O=C1CC2(CCN(c3ncc4cnn(CC(F)F)c4n3)CC2)CN1Cc1cnc(C(F)(F)F)nc1` [Cmpd 917] as the molecule, how does the EC50 read?
The EC50 was 50 to 100 µM.

`FC(F)Cn1ncc2ncc(N3CCC4(CC3)CN(c3cnc(C(F)(F)F)nc3)C4)nc21` [Cmpd 526] was tested. Which EC50 did it give?
Its EC50 is under 10 µM.

With `O=C1N(c2ccnc(C(F)(F)F)c2)CCC12CCN(c1cnc3cnn(CC(F)F)c3n1)C2` (stereo not shown) [Cmpd 517] as the molecule, how does the EC50 read?
Its EC50 is under 10 µM.

How did the EC50 turn out when `O=C1CC2(CCCN(c3cnc4cnn(CC(F)F)c4n3)C2)CN1c1cccc(C(F)(F)F)n1` (stereo not shown) [Compound 95, 7-[1-(2,2-difluoroethyl)-1H-pyrazolo[3,4-b]pyrazin-6-yl]-2-[6-(trifluoromethyl)pyridin-2-yl]-2,7-diazaspiro[4.5]decan-3-one] was run?
Its EC50 is 10 to 50 µM.

For `Cc1nc(C(F)(F)F)ncc1N1CC2(CCN(c3cnc4cnn([C@@H]5CCOC5)c4n3)C2)C1` [Cmpd 657], which EC50 is on record?
Its EC50 is 10 to 50 µM.

With `Cc1cc(N2CC3(CCN(c4cnc5cnn(CC(F)F)c5n4)CC3)C2)nc(C(F)(F)F)n1` [Cmpd 527] as the molecule, how does the EC50 read?
Its EC50 is under 10 µM.

How did the EC50 turn out when `COc1nc(N2CCC3(CN(c4ccnc(C(F)(F)F)c4)C3)C2)nc2c1cnn2CC(F)F` [Cmpd 297] was run?
The EC50 was 10 to 50 µM.

For `O=C1CC2(CCN(c3cnc4cnn(CC(F)F)c4n3)CC2)CN1c1ccc(F)cc1F` [Cmpd 728], which EC50 is on record?
Its EC50 is 10 to 50 µM.

For `FC(F)Cn1ncc2ncc(N3CCC4(CC3)CN(c3cncc(C(F)(F)F)c3)C4)nc21` [Compound 69, 7-[1-(2,2-difluoroethyl)-1H-pyrazolo[3,4-b]pyrazin-6-yl]-2-[5-(trifluoromethyl)pyridin-3-yl]-2,7-diazaspiro[3.5]nonane], which EC50 is on record?
The EC50 was 10 to 50 µM.

With `Cc1nc(N2CC[C@]3(CCN(c4ncc5c(C)nn(C6COC6)c5n4)C3)C2)cc(C(F)(F)F)n1` [Cmpd 1079] as the molecule, how does the EC50 read?
Its EC50 is 10 to 50 µM.

How did the EC50 turn out when `Cc1nc(N2CC3(CCN(c4ccc5nccn5n4)C3)C2)cc(C(F)(F)F)n1` [Cmpd 637] was run?
The EC50 was 10 to 50 µM.

How did the EC50 turn out when `Cc1nc(N2CCC3(CCN(c4cnc5c(C)nn(CC(F)F)c5n4)C3)C2)cc(C(F)(F)F)n1` (stereo not shown) [Cmpd 537] was run?
Its EC50 is over 100 µM.

With `FC(F)Cn1ncc2ncc(N3CCC4(CC3)CCN(c3cnc(C(F)(F)F)cc3Cl)C4)nc21` [Cmpd 754] as the molecule, how does the EC50 read?
Its EC50 is over 100 µM.

For `O=C1CC2(CCN(c3cnc4cnn(CC(F)F)c4n3)CC2)C(CCF)N1c1ccnc(C(F)(F)F)c1` (stereo not shown) [Cmpd 954], which EC50 is on record?
Its EC50 is 10 to 50 µM.

Which EC50 does the source give for `FC(F)(F)Cn1ncc2ncc(N3CC4(CCCN(c5ccc(C(F)(F)F)nc5)C4)C3)nc21` [Compound 136, 2-[1-(2,2,2-trifluoroethyl)-1H-pyrazolo[3,4-b]pyrazin-6-yl]-6-[6-(trifluoromethyl)pyridin-3-yl]-2,6-diazaspiro[3.5]nonane] here?
The EC50 was 10 to 50 µM.

Which EC50 does the source give for `FC(F)Cn1ncc2ncc(N3CC4(CCCN(c5cccc(C(F)(F)F)n5)C4)C3)nc21` [Compound 25, 2-[1-(2,2-difluoroethyl)-1H-pyrazolo[3,4-b]pyrazin-6-yl]-6-[6-(trifluoromethyl)pyridin-2-yl]-2,6-diazaspiro[3.5]nonane] here?
The EC50 was 10 to 50 µM.

`FC(F)(F)Cn1ncc2ncc(N3CCC4(CC3)CN(c3cc(C(F)(F)F)ccn3)C4)nc21` [Cmpd 477] was tested. Which EC50 did it give?
Its EC50 is under 10 µM.

Which EC50 does the source give for `O=C1N(Cc2cnc(C(F)(F)F)nc2)CCC12CCN(c1cnc3cnn(CC(F)F)c3n1)CC2` [Cmpd 843] here?
Its EC50 is 10 to 50 µM.

Which EC50 does the source give for `FC(F)(F)c1ccncc1OC1CC2(CCCN(c3cncc(-c4nncs4)n3)C2)C1` (stereo not shown) [Compound 2, 6-[6-(1,3,4-thiadiazol-2-yl)pyrazin-2-yl]-2-{[4-(trifluoromethyl)pyridin-3-yl]oxy}-6-azaspiro[3.5]nonane] here?
The EC50 was under 10 µM.

How did the EC50 turn out when `FC(F)(F)c1ccc(N2CCC3(CCN(c4cncc(N5CCOCC5)n4)CC3)C2)cn1` [Cmpd 249] was run?
The EC50 was 10 to 50 µM.

Which EC50 does the source give for `Cc1ncc(N2CC3(CCN(c4cnc5cnn(CC(F)F)c5n4)C3)C2)cn1` [Cmpd 461] here?
Its EC50 is over 100 µM.

With `O=C1CC2(CCN(c3cnc4cnn(CC(F)F)c4n3)CC2)CN1c1cncc(C(F)(F)F)n1` [Cmpd 274] as the molecule, how does the EC50 read?
Its EC50 is under 10 µM.

How did the EC50 turn out when `Cc1nn(C2COC2)c2nc(N3CCC4(CN(c5ccnc(C(F)(F)F)c5)C4)C3)ncc12` [Cmpd 932] was run?
Its EC50 is 10 to 50 µM.

With `Cc1nc(N2CCC3(CCN(c4ncc5c(C)nn(C6COC6)c5n4)C3)C2)cc(C(F)(F)F)n1` (stereo not shown) [Cmpd 544] as the molecule, how does the EC50 read?
Its EC50 is 10 to 50 µM.

For `O=C1CC2(CCN(c3cnc4cnn(CC(F)F)c4n3)CC2)CN1Cc1cc(C(F)(F)F)ccn1` [Cmpd 359], which EC50 is on record?
The EC50 was under 10 µM.

For `FC(F)Cn1ncc2ncc(N3CCC4(CCN(c5cc(C(F)(F)F)ccn5)C4)CC3)nc21` [Compound 6, 8-[1-(2,2-difluoroethyl)-1H-pyrazolo[3,4-b]pyrazin-6-yl]-2-[4-(trifluoromethyl)pyridin-2-yl]-2,8-diazaspiro[4.5]decane], which EC50 is on record?
The EC50 was under 10 µM.

`Cn1c(N2CCC3(CCN(c4ccnc(C(F)(F)F)n4)C3)CC2)nc2c(cnn2C2COC2)c1=O` [Cmpd 1060] was tested. Which EC50 did it give?
The EC50 was under 10 µM.

With `CC[C@@H]1N(c2cnc(C(F)(F)F)nc2)C[C@]12CCN(c1cnc3cnn(CC(F)F)c3n1)C2` [Cmpd 1049] as the molecule, how does the EC50 read?
The EC50 was 10 to 50 µM.

`FC(F)Cn1ncc2ncc(N3CCC4(CN(c5ccc(C(F)(F)F)nc5)CCO4)C3)nc21` (stereo not shown) [Compound 176, 2-[1-(2,2-difluoroethyl)-1H-pyrazolo[3,4-b]pyrazin-6-yl]-9-[6-(trifluoromethyl)pyridin-3-yl]-6-oxa-2,9-diazaspiro[4.5]decane] was tested. Which EC50 did it give?
The EC50 was over 100 µM.

Which EC50 does the source give for `O=C1CC2(CCN(c3cnc4cnn(CC(F)F)c4n3)CC2)CN1c1cnc(C(F)(F)F)nc1` [Cmpd 305] here?
Its EC50 is 10 to 50 µM.

With `Cc1nccn1-c1cncc(N2CCC3(CCN(c4ccc(C(F)(F)F)nc4)C3)CC2)n1` [Cmpd 250] as the molecule, how does the EC50 read?
The EC50 was 10 to 50 µM.
